Data taken from PubChem BioAssay AID248 (DTP/NCI, 2004).
Several values for one entry are separate records, joined by “and”; a condition that tells them apart may be missing. Equal entries are not always repeated. Toxic doses and inconclusive results are not listed. No stated cut-off is given here; in the data, active means T/C of 150% or more; inactive means T/C below 125%.

Test system: L1210 leukemia ip in BDF1 mice, survival T/C
Experiment: NCI In Vivo Anticancer Drug Screen. Data for tumor model L1210 Leukemia (intraperitoneal) in B6D2F1 (BDF1) mice
Settings: endpoint: mean survival time, higher = longer survival
In short: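 Antitumor effect is assessed in tumor-bearing animals. Survival in the compound arm is compared with a vehicle-dosed control arm and expressed as their quotient.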

[1] = dose: 12.5 mg/kg/injection, schedule: Q01DX009 (ip), vehicle: saline
[2] = dose: 25.0 mg/kg/injection, schedule: Q01DX009 (ip), vehicle: saline
[3] = dose: 50.0 mg/kg/injection, schedule: Q01DX009 (ip), vehicle: saline
[4] = dose: 75.0 mg/kg/injection, schedule: Q01DX001 (ip), vehicle: saline
[5] = dose: 100.0 mg/kg/injection, schedule: Q01DX009 (ip), vehicle: saline
[6] = dose: 100.0 mg/kg/injection, schedule: Q04DX003 (ip), vehicle: saline
[7] = dose: 200.0 mg/kg/injection, schedule: Q04DX003 (ip), vehicle: saline
[8] = dose: 100.0 mg/kg/injection, schedule: Q01DX009 (ip), vehicle: Klucel (hydroxypropylcellulose) (HPC)
[9] = dose: 100.0 mg/kg/injection, schedule: Q04DX003 (ip), vehicle: Klucel (hydroxypropylcellulose) (HPC)
[10] = dose: 200.0 mg/kg/injection, schedule: Q01DX009 (ip), vehicle: Klucel (hydroxypropylcellulose) (HPC)
[11] = dose: 200.0 mg/kg/injection, schedule: Q04DX003 (ip), vehicle: Klucel (hydroxypropylcellulose) (HPC)
[12] = dose: 400.0 mg/kg/injection, schedule: Q01DX009 (ip), vehicle: Klucel (hydroxypropylcellulose) (HPC)
[13] = dose: 400.0 mg/kg/injection, schedule: Q04DX003 (ip), vehicle: Klucel (hydroxypropylcellulose) (HPC)
[14] = dose: 100.0 mg/kg/injection, schedule: Q01DX001 (ip), vehicle: saline
[15] = dose: 100.0 mg/kg/injection, schedule: Q01DX001 (ip), vehicle: saline with Tween-80
[16] = dose: 200.0 mg/kg/injection, schedule: Q01DX001 (ip), vehicle: saline with Tween-80
[17] = dose: 200.0 mg/kg/injection, schedule: Q01DX001 (ip), vehicle: saline
[18] = dose: 400.0 mg/kg/injection, schedule: Q01DX001 (ip), vehicle: saline
[19] = dose: 50.0 mg/kg/injection, schedule: Q01DX009 (ip), vehicle: Klucel (hydroxypropylcellulose) (HPC)

Measured: T/C

CC(=O)NCC1(c2ccccc2)CCN(CCCC(=O)c2ccc(F)cc2)CC1
inactive: dose: 1.56 mg/kg/injection, schedule: Q03HX024 (ip), vehicle: saline 94 % of control | dose: 3.12 mg/kg/injection, schedule: Q03HX024 (ip), vehicle: saline 98 % of control | dose: 4.1 mg/kg/injection, schedule: Q01DX009 (ip), vehicle: saline 96 % of control | dose: 6.25 mg/kg/injection, schedule: Q01DX009 (ip), vehicle: saline 98 % of control | dose: 8.2 mg/kg/injection, schedule: Q01DX009 (ip), vehicle: saline 96 % of control | [1] 102 % of control | dose: 12.5 mg/kg/injection, schedule: Q04DX003 (ip), vehicle: saline 100 % of control | dose: 16.5 mg/kg/injection, schedule: Q01DX009 (ip), vehicle: saline 89 % of control | dose: 18.75 mg/kg/injection, schedule: Q01DX001 (ip), vehicle: saline 100 % of control | [2] 96 % of control | dose: 25.0 mg/kg/injection, schedule: Q03HX024 (ip), vehicle: saline 86 % of control | dose: 25.0 mg/kg/injection, schedule: Q04DX003 (ip), vehicle: saline 100 % of control and 101 % of control (2×) | dose: 33.0 mg/kg/injection, schedule: Q01DX009 (ip), vehicle: saline 86 % of control | dose: 37.5 mg/kg/injection, schedule: Q01DX001 (ip), vehicle: saline 96 % of control | [3] 109 % of control | dose: 50.0 mg/kg/injection, schedule: Q04DX003 (ip), vehicle: saline 101 % of control and 108 % of control and 118 % of control | dose: 66.0 mg/kg/injection, schedule: Q01DX009 (ip), vehicle: saline 91 % of control | [4] 96 % of control | [5] 107 % of control | [6] 103 % of control | dose: 150.0 mg/kg/injection, schedule: Q01DX001 (ip), vehicle: saline 91 % of control | [7] 113 % of control

COc1ccc2c3c1OC1C(C)=CCC4C(C2)N(C)CCC314 (configuration not stated)
inactive: [4] 101 % of control

O=C(c1ccccc1)C(Br)C(Br)C(=O)c1ccccc1 (configuration not stated)
inactive: dose: 100.0 mg/kg/injection, schedule: Q01DX001 (ip), vehicle: carboxymethylcellulose (CMC) 107 % of control | [8] 93 % of control | [9] 91 % of control | dose: 200.0 mg/kg/injection, schedule: Q01DX001 (ip), vehicle: carboxymethylcellulose (CMC) 96 % of control | [10] 101 % of control | [11] 88 % of control | dose: 400.0 mg/kg/injection, schedule: Q01DX001 (ip), vehicle: carboxymethylcellulose (CMC) 107 % of control | [12] 91 % of control | [13] 90 % of control

COC1(OC)C2(Cl)C(Cl)=C(Cl)C1(Cl)C1C(=O)C=CC(=O)C12 (configuration not stated)
inactive: [8] 104 % of control | [9] 100 % of control | [6] 98 % of control | [10] 96 % of control | [11] 98 % of control | [7] 93 % of control | [12] 98 % of control | [13] 96 % of control | dose: 400.0 mg/kg/injection, schedule: Q04DX003 (ip), vehicle: saline 101 % of control

CC1(C)C/C(=C\c2ccc(Br)cc2)C(=O)c2ccccc21
inactive: [8] 98 % of control | [9] 106 % of control | [10] 95 % of control | [11] 106 % of control | [12] 101 % of control | [13] 104 % of control

CN(C)C=Nc1ccc2c3c(cccc13)CC2
inactive: dose: 6.25 mg/kg/injection, schedule: Q04DX003 (ip), vehicle: saline with Tween-80 103 % of control | dose: 12.5 mg/kg/injection, schedule: Q04DX003 (ip), vehicle: saline with Tween-80 88 % of control | dose: 25.0 mg/kg/injection, schedule: Q04DX003 (ip), vehicle: saline with Tween-80 98 % of control

CONS(=O)c1ccc([N+](=O)[O-])cc1 (configuration not stated)
inactive: [8] 98 % of control | [10] 96 % of control | [12] 100 % of control

NC1=NNC(N)=NN1
inactive: [1] 93 % of control | [2] 101 % of control | [3] 100 % of control and 107 % of control | [5] 92 % of control

CN(C)CCCN1CCC2(CC[Si](C)(C)CC2)C1
inactive: [14] 94 % of control

CCOC(=O)CC(c1cccc2ccccc12)c1cccc2ccc3ccccc3c12 (configuration not stated)
inactive: [9] 92 % of control | [11] 86 % of control | [13] 91 % of control

[C-]#[N+]CCc1ccccc1
inactive: [15] 98 % of control | [16] 96 % of control

Clc1nc2ccccc2[nH]1
inactive: [14] 114 % of control | [17] 105 % of control | [18] 110 % of control

CN(C)/N=N\N(C)C
inactive: dose: 25.0 mg/kg/injection, schedule: Q01DX009 (ip), vehicle: Klucel (hydroxypropylcellulose) (HPC) 98 % of control | [19] 103 % of control | [8] 101 % of control

COc1cc2c(cc1OC)C(C(N)=O)NCC2 (configuration not stated)
inactive: dose: 100.0 mg/kg/injection, schedule: Q01DX001 (ip), vehicle: other 101 % of control | dose: 200.0 mg/kg/injection, schedule: Q01DX001 (ip), vehicle: other 97 % of control | dose: 400.0 mg/kg/injection, schedule: Q01DX001 (ip), vehicle: other 93 % of control

CC(C)C1CC(C)(C)c2cc(O)ccc2O1 (configuration not stated)
inactive: [9] 101 % of control | [11] 105 % of control | [13] 100 % of control

CC(O)(c1ccc(Cl)cc1)C(c1ccccc1)c1ccccn1 (configuration not stated)
inactive: dose: 50.0 mg/kg/injection, schedule: Q01DX009 (ip), vehicle: water 103 % of control | dose: 100.0 mg/kg/injection, schedule: Q01DX009 (ip), vehicle: water 95 % of control | dose: 100.0 mg/kg/injection, schedule: Q04DX003 (ip), vehicle: water 116 % of control | dose: 200.0 mg/kg/injection, schedule: Q01DX009 (ip), vehicle: water 96 % of control | dose: 200.0 mg/kg/injection, schedule: Q04DX003 (ip), vehicle: water 119 % of control | dose: 400.0 mg/kg/injection, schedule: Q01DX009 (ip), vehicle: water 97 % of control | dose: 400.0 mg/kg/injection, schedule: Q04DX003 (ip), vehicle: water 104 % of control

CCOC(C)(C)C
inactive: [14] 97 % of control | [17] 103 % of control | [18] 106 % of control

O=C1CCCCC1Oc1ccccc1 (configuration not stated)
inactive: dose: 100.0 mg/kg/injection, schedule: Q01DX009 (ip), vehicle: saline with Tween-80 95 % of control | dose: 100.0 mg/kg/injection, schedule: Q04DX003 (ip), vehicle: saline with Tween-80 95 % of control | dose: 200.0 mg/kg/injection, schedule: Q01DX009 (ip), vehicle: saline with Tween-80 101 % of control | dose: 200.0 mg/kg/injection, schedule: Q04DX003 (ip), vehicle: saline with Tween-80 98 % of control | dose: 400.0 mg/kg/injection, schedule: Q01DX009 (ip), vehicle: saline with Tween-80 86 % of control | dose: 400.0 mg/kg/injection, schedule: Q04DX003 (ip), vehicle: saline with Tween-80 93 % of control

ON=C1CCC(=NO)CC1
inactive: [15] 95 % of control | [16] 98 % of control | dose: 400.0 mg/kg/injection, schedule: Q01DX001 (ip), vehicle: saline with Tween-80 103 % of control

C1=C(c2ccccc2)CCC1
inactive: [19] 97 % of control | [8] 97 % of control | [9] 97 % of control | [10] 100 % of control | [11] 101 % of control

O=[N+]([O-])c1ccc(Cl)c(O)c1
inactive: dose: 25.0 mg/kg/injection, schedule: Q01DX009 (ip), vehicle: carboxymethylcellulose (CMC) 108 % of control | dose: 50.0 mg/kg/injection, schedule: Q01DX009 (ip), vehicle: carboxymethylcellulose (CMC) 106 % of control | dose: 100.0 mg/kg/injection, schedule: Q01DX009 (ip), vehicle: carboxymethylcellulose (CMC) 97 % of control

O=C(OCCO)c1ccc(O)cc1
inactive: [14] 88 % of control | [17] 93 % of control | [18] 88 % of control

N/C(=N\OC(=O)Nc1ccc(Cl)cc1)C(Cl)(Cl)Cl
inactive: [8] 94 % of control | [10] 90 % of control
